Laboratory results from patent publication US3989835A, “Method of using 6-substituted amino phenyl-2,3,5,6-tetra-hydro[2,1-b]thiazoles for controlling gastrointestinal nematodes” (American Cyanamid Company, priority 1974, dated 1976).
“And” between values parts separate entries of the source, which are not always exact repeats. Equal entries are not always repeated. Where two headings read alike, the source gives them in different places.

Assays:
in vivo [1] = conditions: for Approx. LD50 /ED50: chemotherapeutic index, mouse oral, N. dubius; for LD50: mouse, in vivo, po; for Dead/Total: mice
Excerpt: Data on the acute oral toxicity to mice of various single oral doses of the above compounds and several analogs were obtained by conventional procedures, (Table IX hereinafter).

in vivo [2] = conditions: dog
Experimental: (§1) Dogs infected with mature adult whipworms Trichuris vulpis were treated with various single or double doses of unsubstituted or substituted tetramisole analogs by the oral or subcutaneous route (Table XI hereinafter). Whipworms passed in the feces were collected for several days, and the whipworms still present determined at necropsy. Percent efficacy was determined in these "critical" tests. […] Trichuris is a type of nematode refactory to treatment with most prior anthelmintics at well tolerated doses. Taxonomically allied nematodes, e.g., Trichinella and Capillaria are also refractory to most anthelmintics.

Nematospiroides dubius = assay: Anthelmintic efficacy against N. dubius in mice, single oral dose; format: in vivo, Nematospiroides dubius (in albino female mice); conditions: for inhibition in vivo at 1.25 mg/kg: single oral dose 1.25 mg./Kg.; for inhibition in vivo at 2 mg/kg: single oral dose 2.0 mg./Kg.; for inhibition in vivo at 4 mg/kg: single oral dose 4.0 mg./Kg.; for inhibition in vivo at 5 mg/kg: single oral dose 5.0 mg./Kg.; for inhibition in vivo at 10 mg/kg: single oral dose 10 mg./Kg.
Experimental: Albino female mice are each inoculated with about 20 infectious larvae of Nematospiroides dubius. This nematode is a representative of the economical important trichostrongylis worms of ruminants and other hosts, and of nematodes in general. Twenty-two days after inoculation, groups of four randomly selected mice containing adult N. dubius are given single oral doses of test compounds dissolved or suspended in 0.4 ml. of water per 20 gram mouse. At 26 or 27 days after inoculation, treated mice and in each test four randomly selected groups of untreated mice are necropsied. The number of worms in the small intestine of each mouse are determined by microscopic examination. Average worm numbers for each treated group and for the untreated controls are computed and the percent efficacy determined by the customary formula:
(Average Worms in Control - Average Worms in Treated)/(Average Worms in Control) X 100.

Trichuris vulpis = assay: Oral or subcutaneous activity vs. mature Trichuris vulpis in dogs (critical test); format: in vivo
Experimental: as §1

[3] = Approx. LD50, mouse oral, Table IX
[4] = LD50, mice, adjusted to molar equivalents of tetramisole free base
[5] = Heligmosomoides polygyrus, po, as Base, single oral dose, mice, > indicates inactive at dose shown, read-out: Approx. ED50
[6] = Heligmosomoides polygyrus, po, mouse oral, Table IX, read-out: Approx. ED50 vs. N. dubius
[7] = Heligmosomoides polygyrus, po, molar-adjusted, read-out: Percent Nematospiroides Activity
[8] = single oral dose 10 mg./kg., N. dubius, mice
[9] = oral 5 Mg./Kg., based on total worms in all dogs

Compound: Cl.Cl.Nc1cccc(C2CN3CCSC3=N2)c1 (racemic) [dl-m-aminotetramisole, 6-(m-Aminophenyl)-2,3,5,6-tetrahydroimidazo[2,1-b]thiazole Dihydrochloride]
- Approx. LD50 /ED50 (in vivo [1]; Table IX): 15
- LD50 (in vivo [1]; [3]): 15 mg/kg
- LD50 (in vivo [1]; [4]): ~20 mg/kg
- Dead/Total (in vivo [1]; single oral dose 4-5 Mg./Kg.): 0/8
- Dead/Total (in vivo [1]; single oral dose 10 Mg./Kg.): 2/29
- Dead/Total (in vivo [1]; single oral dose 15 Mg./Kg.): 7/14
- Dead/Total (in vivo [1]; single oral dose 20 Mg./Kg.): 10/12
- Dead/Total (in vivo [1]; single oral dose 40 Mg./Kg.): 4/4
- MTD (in vivo [2]; po): 7.5 mg/kg
- MTD (in vivo [2]; sc): 5 mg/kg
- ED50 (Nematospiroides dubius; [5]): 1 mg/kg
- ED50 (Nematospiroides dubius; [6]): 1 mg/kg
- ED50 (Nematospiroides dubius; Heligmosomoides polygyrus, po, read-out: ED50 (approximate dose which removes 50% of the worms), N. dubius in mice, single oral dose): ~1 mg/kg
- inhibition in vivo at 1.25 mg/kg (Nematospiroides dubius; [7]): 57%
- inhibition in vivo at 2 mg/kg (Nematospiroides dubius; [7]): 92%
- inhibition in vivo at 4 mg/kg (Nematospiroides dubius; [7]): 100%
- inhibition in vivo at 5 mg/kg (Nematospiroides dubius; [7]): 100%
- inhibition in vivo at 10 mg/kg (Nematospiroides dubius; [7]): 100%
- superiority over tetramisole at dose required to attain 85 - 88% efficacy (Nematospiroides dubius; N. dubius in mice): approximately eightfold superiority
- activity in words (Nematospiroides dubius; N. dubius in mice, oral): unusually high activity
- activity relative to tetramisole (Nematospiroides dubius; from ED50s against N. dubius in mice): approximately nine times as active as tetramisole
- activity in words (Nematospiroides dubius; single dose oral ED50 against N. dubius in mice): unexpected high activity
- Average % Efficacy (Nematospiroides dubius; single oral dose 0.5 mg./kg.): 5%
- % Efficacy per Group (Nematospiroides dubius; single oral dose 0.5 mg./kg., Dihydrochloride): 2% and 6% and 8%
- Average % Efficacy (Nematospiroides dubius; single oral dose 1.00 mg./kg.): 50%
- Average % Efficacy (Nematospiroides dubius; single oral dose 1.25 mg./kg.): 81%
- % Efficacy per Group (Nematospiroides dubius; single oral dose 1.25 mg./kg., Dihydrochloride): 80% and 82%
- Average % Efficacy (Nematospiroides dubius; single oral dose 2.0 mg./kg.): 85%
- % Efficacy per Group (Nematospiroides dubius; single oral dose 2.0 mg./kg., Dihydrochloride): 77% and 78% and 82% and 83% and 88% and 92% and 98%
- % Efficacy per Group (Nematospiroides dubius; single oral dose 4 mg./kg.): 100%
- Average % Efficacy (Nematospiroides dubius; single oral dose 4 mg./kg.): 100%
- % Efficacy per Group (Nematospiroides dubius; single oral dose 5 mg./kg.): 100%
- Average % Efficacy (Nematospiroides dubius; single oral dose 5 mg./kg.): 100%
- % Efficacy per Group (Nematospiroides dubius; [8]): 100%
- Average % Efficacy (Nematospiroides dubius; [8]): 100%
- % Efficacy SC (Trichuris vulpis; SC 2.5 Mg./Kg.): 92%
- % Efficacy SC (Trichuris vulpis; SC 5 Mg./Kg.): 100%
- % Efficacy Orally (Trichuris vulpis; oral 2.5 Mg./Kg.): 99%
- % Efficacy Orally (Trichuris vulpis; [9]): 98%

Compound: O=CNc1cccc(C2CN3CCSC3=N2)c1 (racemic) [m-NH--HCO dl, 3'-(2,3,5,6-Tetrahydroimidazo[2,1-b-]thiazol-6-yl)-formanilide]
- Approx. LD50 /ED50 (in vivo [1]; Table IX): 10
- LD50 (in vivo [1]; [3]): 30 mg/kg
- LD50 (in vivo [1]; [4]): ~30 mg/kg
- Dead/Total (in vivo [1]; single oral dose 4-5 Mg./Kg.): 0/8
- Dead/Total (in vivo [1]; single oral dose 10 Mg./Kg.): 0/4
- Dead/Total (in vivo [1]; single oral dose 20 Mg./Kg.): 1/10
- Dead/Total (in vivo [1]; single oral dose 40 Mg./Kg.): 12/13
- MTD (in vivo [2]; po): 7.5 mg/kg
- MTD (in vivo [2]; sc): > 5 mg/kg
- ED50 (Nematospiroides dubius; [5]): 3 mg/kg
- ED50 (Nematospiroides dubius; [6]): 3 mg/kg
- inhibition in vivo at 4 mg/kg (Nematospiroides dubius; [7]): 79%
- inhibition in vivo at 10 mg/kg (Nematospiroides dubius; [7]): 97%
- % Efficacy Orally (Trichuris vulpis; oral 1.25 Mg./Kg.): 21%
- % Efficacy Orally (Trichuris vulpis; oral 2.5 Mg./Kg.): 83%
- % Efficacy Orally (Trichuris vulpis; [9]): 100%

Compound: O=CNc1cccc(C2CN3CCSC3=N2)c1 (stereo not drawn) [HNCHO l-]
- LD50 (in vivo [1]; [4]): ~30 mg/kg
- MTD (in vivo [2]; po): 2.5 mg/kg
- inhibition in vivo at 1.25 mg/kg (Nematospiroides dubius; [7]): 61%
- inhibition in vivo at 2 mg/kg (Nematospiroides dubius; [7]): 72%
- inhibition in vivo at 5 mg/kg (Nematospiroides dubius; [7]): 95%
- inhibition in vivo at 10 mg/kg (Nematospiroides dubius; [7]): 100%
- % Efficacy Orally (Trichuris vulpis; oral 1.25 Mg./Kg.): 46%
- % Efficacy Orally (Trichuris vulpis; oral 2.5 Mg./Kg.): 100%

Compound: O=C(Nc1cccc(C2CN3CCSC3=N2)c1)c1ccc(Cl)c(Cl)c1 (stereo not shown) [Table XII b1854]
- LD50 (in vivo [1]; [4]): 80 to 100 mg/kg
- inhibition in vivo at 0.625 mg/kg (Nematospiroides dubius; Heligmosomoides polygyrus, po, single oral dose 0.625 mg./Kg., adjusted to molar equivalents of tetramisole free base, read-out: Percent Nematospiroides Activity): 58%
- inhibition in vivo at 1.25 mg/kg (Nematospiroides dubius; [7]): 52%
- inhibition in vivo at 2 mg/kg (Nematospiroides dubius; [7]): 92%
- inhibition in vivo at 5 mg/kg (Nematospiroides dubius; [7]): 95%

Compound: O=C(Nc1cccc(C2CN3CCSC3=N2)c1)c1ccc([N+](=O)[O-])cc1 (stereo not shown) [Table XII b1857]
- LD50 (in vivo [1]; [4]): 60 to 90 mg/kg
- inhibition in vivo at 1.25 mg/kg (Nematospiroides dubius; [7]): 65%
- inhibition in vivo at 2 mg/kg (Nematospiroides dubius; [7]): 78%
- inhibition in vivo at 5 mg/kg (Nematospiroides dubius; [7]): 100%
- inhibition in vivo at 10 mg/kg (Nematospiroides dubius; [7]): 100%

Compound: O=C(Nc1cccc(C2CN3CCSC3=N2)c1)c1ccco1 (stereo not shown) [Table XII b1864]
- LD50 (in vivo [1]; [4]): 80 to 100 mg/kg
- inhibition in vivo at 2 mg/kg (Nematospiroides dubius; [7]): 37%
- inhibition in vivo at 5 mg/kg (Nematospiroides dubius; [7]): 85%
- inhibition in vivo at 10 mg/kg (Nematospiroides dubius; [7]): 99%
- inhibition in vivo at 20 mg/kg (Nematospiroides dubius; Heligmosomoides polygyrus, po, single oral dose 20 mg./Kg., molar-adjusted, read-out: Percent Nematospiroides Activity): 100%

Compound: O=C(Nc1cccc(C2CN3C=CSC3=N2)c1)c1ccccc1 (stereo not shown) [Table XIV b1987]
- LD50 (in vivo [1]; [4]): ~120 mg/kg
- inhibition in vivo at 5 mg/kg (Nematospiroides dubius; [7]): 94%
- inhibition in vivo at 10 mg/kg (Nematospiroides dubius; [7]): 100%
- Percent Nematospirides Activity (Nematospiroides dubius; single oral dose 2.5 mg./Kg., molar-adjusted): 73%
